#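 Growth conditions: 96-well plates. Treatment: test compound, 48 hours, 5 concentrations. Analysis: linear interpolation between bracketing concentrations; unreached endpoints set to highest concentration. GI50 = concentration required for 50% inhibition of growth. At the TGI there is no net growth.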
# How the values were obtained:
# Test in all cases: inhibition of tumour cell growth, NCI panel, 48 h
# M14 melanoma = tested on: M14 melanoma
# HOP-62 NSCLC = tested on: HOP-62 NSCLC
# UACC-257 melanoma = tested on: UACC-257 melanoma
# T-47D breast = tested on: T-47D breast
# LOX IMVI melanoma = tested on: LOX IMVI melanoma
# U251 CNS = tested on: U251 CNS
# SK-MEL-5 melanoma = tested on: SK-MEL-5 melanoma
# TK-10 renal = tested on: TK-10 renal
# SNB-75 CNS = tested on: SNB-75 CNS
# NCI-H522 lung = tested on: NCI-H522 lung
# RPMI-8226 leukemia = tested on: RPMI-8226 leukemia
# SK-MEL-2 melanoma = tested on: SK-MEL-2 melanoma
# HL-60(TB) leukemia = tested on: HL-60(TB) leukemia
# K-562 leukemia = tested on: K-562 leukemia
# CCRF-CEM leukemia = tested on: CCRF-CEM leukemia
# HCT-116 colon = tested on: HCT-116 colon
# 786-0 renal = tested on: 786-0 renal
# MDA-MB-435 = tested on: MDA-MB-435
# MDA-MB-231 breast = tested on: MDA-MB-231 breast
# SF-268 CNS = tested on: SF-268 CNS
# HCC-2998 colon = tested on: HCC-2998 colon
# UO-31 renal = tested on: UO-31 renal
# NCI-H23 lung = tested on: NCI-H23 lung
# PC-3 prostate = tested on: PC-3 prostate
# SF-295 CNS = tested on: SF-295 CNS
# SK-OV-3 ovarian = tested on: SK-OV-3 ovarian
# DU-145 prostate = tested on: DU-145 prostate
# OVCAR-3 ovarian = tested on: OVCAR-3 ovarian
# HOP-92 NSCLC = tested on: HOP-92 NSCLC
# SNB-19 CNS = tested on: SNB-19 CNS
# SK-MEL-28 melanoma = tested on: SK-MEL-28 melanoma
# NCI-H460 lung = tested on: NCI-H460 lung
# HCT-15 colon = tested on: HCT-15 colon
# OVCAR-4 ovarian = tested on: OVCAR-4 ovarian
# OVCAR-8 ovarian = tested on: OVCAR-8 ovarian
# UACC-62 melanoma = tested on: UACC-62 melanoma
# SW-620 colon = tested on: SW-620 colon
# KM12 colon = tested on: KM12 colon
# NCI-H226 lung = tested on: NCI-H226 lung
# SF-539 CNS = tested on: SF-539 CNS
# A549 NSCLC = tested on: A549 NSCLC
# BT-549 breast = tested on: BT-549 breast
# NCI/ADR-RES ovarian = tested on: NCI/ADR-RES ovarian
# MDA-MB-468 breast = tested on: MDA-MB-468 breast
# EKVX NSCLC = tested on: EKVX NSCLC
# A498 renal = tested on: A498 renal
# MOLT-4 leukemia = tested on: MOLT-4 leukemia
# MALME-3M melanoma = tested on: MALME-3M melanoma
# CAKI-1 renal = tested on: CAKI-1 renal
# ACHN renal = tested on: ACHN renal
# SR leukemia = tested on: SR leukemia
# SN12C renal = tested on: SN12C renal
# HS 578T breast = tested on: HS 578T breast
# OVCAR-5 ovarian = tested on: OVCAR-5 ovarian
# MCF7 breast = tested on: MCF7 breast
# RXF 393 renal = tested on: RXF 393 renal
# HT29 colon = tested on: HT29 colon
# COLO 205 colon = tested on: COLO 205 colon
# IGROV1 ovarian = tested on: IGROV1 ovarian
smiles,measurement,setting,value
O=C(c1ccc(Cl)cc1)C1[C@H](c2ccccc2Cl)[C@@H](c2ccccc2)NC12C(=O)Nc1ccc(Br)cc12 (stereo partly drawn),GI50,M14 melanoma,15.3 µM
same,TGI,M14 melanoma,29.3 µM
same,GI50,HOP-62 NSCLC,15 µM
same,TGI,HOP-62 NSCLC,30 µM
same,GI50,UACC-257 melanoma,17.6 µM
same,TGI,UACC-257 melanoma,37.8 µM
same,GI50,T-47D breast,15.2 µM
same,TGI,T-47D breast,30.3 µM
same,GI50,LOX IMVI melanoma,15.2 µM
same,TGI,LOX IMVI melanoma,28.5 µM
same,GI50,U251 CNS,16.1 µM
same,TGI,U251 CNS,29.9 µM
same,GI50,SK-MEL-5 melanoma,16.1 µM
same,TGI,SK-MEL-5 melanoma,29.8 µM
same,GI50,TK-10 renal,18.3 µM
same,TGI,TK-10 renal,50.6 µM
same,GI50,SNB-75 CNS,10.5 µM
same,TGI,SNB-75 CNS,35 µM
same,GI50,NCI-H522 lung,14.1 µM
same,TGI,NCI-H522 lung,29.9 µM
same,GI50,RPMI-8226 leukemia,26 µM
same,TGI,RPMI-8226 leukemia,84.5 µM
same,GI50,SK-MEL-2 melanoma,15.9 µM
same,TGI,SK-MEL-2 melanoma,31.6 µM
same,GI50,HL-60(TB) leukemia,20.8 µM
same,TGI,HL-60(TB) leukemia,49.1 µM
same,GI50,K-562 leukemia,26.8 µM
same,TGI,K-562 leukemia,88.9 µM
same,GI50,CCRF-CEM leukemia,24.4 µM
same,TGI,CCRF-CEM leukemia,68.2 µM
same,GI50,HCT-116 colon,14.4 µM
same,TGI,HCT-116 colon,27.6 µM
same,GI50,786-0 renal,16.6 µM
same,TGI,786-0 renal,34.4 µM
same,GI50,MDA-MB-435,15.2 µM
same,TGI,MDA-MB-435,29.6 µM
same,GI50,MDA-MB-231 breast,15.6 µM
same,TGI,MDA-MB-231 breast,29.4 µM
same,GI50,SF-268 CNS,16.6 µM
same,TGI,SF-268 CNS,38.7 µM
same,GI50,HCC-2998 colon,15.5 µM
same,TGI,HCC-2998 colon,31.1 µM
same,GI50,UO-31 renal,13.4 µM
same,TGI,UO-31 renal,30.6 µM
same,GI50,NCI-H23 lung,14.9 µM
same,TGI,NCI-H23 lung,31.1 µM
same,GI50,PC-3 prostate,15.7 µM
same,TGI,PC-3 prostate,37.5 µM
same,GI50,SF-295 CNS,16.5 µM
same,TGI,SF-295 CNS,32.4 µM
same,GI50,SK-OV-3 ovarian,24.3 µM
same,TGI,SK-OV-3 ovarian,70.2 µM
same,GI50,DU-145 prostate,19.2 µM
same,TGI,DU-145 prostate,40.5 µM
same,GI50,OVCAR-3 ovarian,15.6 µM
same,TGI,OVCAR-3 ovarian,32.4 µM
same,GI50,HOP-92 NSCLC,15.6 µM
same,TGI,HOP-92 NSCLC,31 µM
same,GI50,SNB-19 CNS,24.8 µM
same,TGI,SNB-19 CNS,78.3 µM
same,GI50,SK-MEL-28 melanoma,16 µM
same,TGI,SK-MEL-28 melanoma,29.7 µM
same,GI50,NCI-H460 lung,17.7 µM
same,TGI,NCI-H460 lung,35 µM
same,GI50,HCT-15 colon,15.8 µM
same,TGI,HCT-15 colon,30.5 µM
same,GI50,OVCAR-4 ovarian,18.3 µM
same,TGI,OVCAR-4 ovarian,49.7 µM
same,GI50,OVCAR-8 ovarian,17.7 µM
same,TGI,OVCAR-8 ovarian,36.6 µM
same,GI50,UACC-62 melanoma,13.7 µM
same,TGI,UACC-62 melanoma,27 µM
same,GI50,SW-620 colon,16.1 µM
same,TGI,SW-620 colon,31.4 µM
same,GI50,KM12 colon,19.7 µM
same,TGI,KM12 colon,44.7 µM
same,GI50,NCI-H226 lung,14.4 µM
same,TGI,NCI-H226 lung,29.3 µM
same,GI50,SF-539 CNS,16.5 µM
same,TGI,SF-539 CNS,31.8 µM
same,GI50,A549 NSCLC,17.5 µM
same,TGI,A549 NSCLC,42.3 µM
same,GI50,BT-549 breast,14.5 µM
same,TGI,BT-549 breast,28 µM
same,GI50,NCI/ADR-RES ovarian,15.5 µM
same,TGI,NCI/ADR-RES ovarian,30.7 µM
same,GI50,MDA-MB-468 breast,11 µM
same,TGI,MDA-MB-468 breast,26.9 µM
same,GI50,EKVX NSCLC,16.6 µM
same,TGI,EKVX NSCLC,44 µM
same,GI50,A498 renal,19.9 µM
same,TGI,A498 renal,46.7 µM
same,GI50,MOLT-4 leukemia,21.2 µM
same,TGI,MOLT-4 leukemia,61.7 µM
same,GI50,MALME-3M melanoma,15.5 µM
same,TGI,MALME-3M melanoma,29 µM
same,GI50,CAKI-1 renal,14.8 µM
same,TGI,CAKI-1 renal,33.9 µM
same,GI50,ACHN renal,22.8 µM
same,TGI,ACHN renal,69.5 µM
same,GI50,SR leukemia,16.5 µM
same,TGI,SR leukemia,41.7 µM
same,GI50,SN12C renal,15 µM
same,TGI,SN12C renal,28.2 µM
same,GI50,HS 578T breast,16.9 µM
same,TGI,HS 578T breast,42.7 µM
same,GI50,OVCAR-5 ovarian,14.9 µM
same,TGI,OVCAR-5 ovarian,29.6 µM
same,GI50,MCF7 breast,15.7 µM
same,TGI,MCF7 breast,37.3 µM
same,GI50,RXF 393 renal,14.1 µM
same,TGI,RXF 393 renal,28.2 µM
same,GI50,HT29 colon,17.9 µM
same,TGI,HT29 colon,37 µM
same,GI50,COLO 205 colon,17.4 µM
same,TGI,COLO 205 colon,31.6 µM
same,GI50,IGROV1 ovarian,17.1 µM
same,TGI,IGROV1 ovarian,41 µM

# From PubChem BioAssay (NCI)
